Broadly, the IC50 is the concentration needed to halve the response being measured.

Data on 28 compounds can be found in patent US10179790B2 (THOMAS HELLEDAYS STIFTELSE FOR MEDICINSK FORSKNING, priority 2014, dated 2019).

Where only a bound is given, the exact number is not on record here.

One assay concerns the target MTH1 (Homo sapiens, UniProt P36639). The assay is described as follows: MTH1 enzymatic assay and IC50 value determination (malachite green, 96- and 384-well format). In kind it is biochemical. Particulars: hydrolysis of dGTP (100 μM), MTH1 6 nM, pyrophosphatase-coupled malachite green, 15 minutes at 22° C. In a few lines:
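MTH1 (6 nM) hydrolysed dGTP (100 μM) for 15 min at 22 °C in Tris-acetate buffer with Mg2+, DTT, Tween 20 and excess pyrophosphatase, 1% DMSO. Pi detected with malachite green at 630 nm. IC50 from nonlinear 4-parameter fit of 11–12-point dilution series.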

The test system of a further assay is cancer cell. Kind of assay: Cell viability assay (resazurin). In kind it is cell-based. Conditions: 72 h; 3 days with compound, resazurin fluorescence; cell line not named. Here is the method:
The utility of the compounds of the present invention can be illustrated, for example, by their activity in vitro in the cancer cell clonogenic and/or viability assay described below. The link between activity in tumor cell clonogenic assay and anti-tumor activity in the clinical setting has been well established in the art (e.g. see ref Silverstini et al Stem Cells 1993, 11(6), 258-35).
Cells are seeded into 96 well plates (1000-3000 cells/well) in DMEM GlutaMAX™ or other suitable media dependent on cell line and incubated overnight in 5% CO2, 37° C. Thereafter cells are treated with compound or vehicle and left in incubator for 3 days until staining with resazurin. Cells are incubated in resazurin (diluted in suitable media) at 37° C. for 2 hours before measuring the fluorescence (Ex544/Em590).
The compounds to be tested are nano-dispensed in 11 concentrations, directly in 384-well cell plates, with a final DMSO concentration <1%. Cells are seeded in cell plates, pre-dispensed with compounds, 50 μl/well (600-1200 cells/well). After 3 days culture in 5% CO2, 37° C., resazurin diluted in PBS is added, 10 μl/well, and cells are incubated 3 hours before measuring fluorescence (Ex544/Em590).
On the technique in general: Resazurin is reduced to fluorescent resorufin, in cell work by metabolically active cells.

In the case of `Cc1cccc(-c2cc(NCCc3ccc(C(N)=O)cc3)nc(N)n2)c1C` [Example 44, 4-(2-{[2-amino-6-(2,3-dimethylphenyl)pyrimidin-4-yl]amino}ethyl)benzamide], the IC50 is below 200 nM at MTH1 and below 500 nM with cancer cell.
For `CC(=O)Nc1cccc(CCNc2cc(-c3cccc(Cl)c3C)nc(N)n2)c1` [Example 46, N-[3-(2-{[2-amino-6-(3-chloro-2-methylphenyl)pyrimidin-4-yl]amino}ethyl)phenyl]acetamide], in that order: below 200 nM and below 500 nM.
For `CCOC(=O)Nc1cccc(CCNc2cc(-c3cccc(Cl)c3C)nc(N)n2)c1` [Example 47, ethyl N-[3-(2-{[2-amino-6-(3-chloro-2-methylphenyl)pyrimidin-4-yl]amino}ethyl)phenyl]carbamate], in that order: below 200 nM and below 500 nM.
Regarding `Cc1c(Cl)cccc1-c1cc(NCCc2ccc3c(c2)NC(=O)CO3)nc(N)n1` [Example 48, 6-(2-{[2-amino-6-(3-chloro-2-methylphenyl)pyrimidin-4-yl]amino}ethyl)-3,4-dihydro-2H-1,4-benzoxazin-3-one], the IC50 against MTH1 is below 200 nM; in the assay with cancer cell, below 500 nM.
For `COC(=O)c1cnc(NCCNc2cc(-c3cccc(C)c3C)nc(N)n2)cn1` [Example 49, methyl 5-[(2-{[2-amino-6-(2,3-dimethylphenyl)pyrimidin-4-yl]amino}ethyl)amino]pyrazine-2-carboxylate], in that order: below 200 nM and below 500 nM.
As for `Cc1c(Cl)cccc1-c1cc(NCCc2cccc(S(C)(=O)=O)c2)nc(N)n1` [Example 52, 6-(3-chloro-2-methylphenyl)-4-N-[2-(3-methanesulfonylphenyl)ethyl]pyrimidine-2,4-diamine], the IC50 was below 200 nM on MTH1 and below 500 nM with cancer cell.
Consider `Cc1c(Cl)cccc1-c1cc(NCCc2cccc(S(N)(=O)=O)c2)nc(N)n1` [Example 53, 3-(2-{[2-amino-6-(3-chloro-2-methylphenyl)pyrimidin-4-yl]amino}ethyl)benzene-1-sulfonamide], for which the IC50 against MTH1 was below 200 nM; in the assay with cancer cell, below 500 nM.
The like results for `Nc1nc(NCCc2cccc(S(N)(=O)=O)c2)cc(-c2cccc(Cl)c2Cl)n1` [Example 54, 3-(2-{[2-amino-6-(2,3-dichlorophenyl)pyrimidin-4-yl]amino}ethyl)benzene-1-sulfonamide] were, in that order, below 200 nM and below 500 nM.
The like results for `Cc1c(Cl)cccc1-c1cc(NCCOc2ccc(C(N)=O)cn2)nc(N)n1` [Example 55, 6-(2-{[2-amino-6-(3-chloro-2-methylphenyl)pyrimidin-4-yl]amino}ethoxy)pyridine-3-carboxamide] were, in that order, below 200 nM and below 500 nM.
The like results for `Cc1c(Cl)cccc1-c1cc(NCCNc2ccc3c(c2)NC(=O)C(C)(C)O3)nc(N)n1` [Example 56, 6-[(2-{[2-amino-6-(3-chloro-2-methylphenyl)pyrimidin-4-yl]amino}ethyl)amino]-2,2-dimethyl-3,4-dihydro-2H-1,4-benzoxazin-3-one] were, in that order, below 200 nM and below 500 nM.
In the case of `Cc1c(Cl)cccc1-c1cc(NCCOc2nccc(C(N)=O)n2)nc(N)n1` [Example 57, 2-(2-{[2-amino-6-(3-chloro-2-methylphenyl)pyrimidin-4-yl]amino}ethoxy)pyrimidine-4-carboxamide], the results for the IC50 against MTH1 and in the assay with cancer cell were below 200 nM and below 500 nM, respectively.
The like results for `Cc1c(Cl)cccc1-c1cc(NCCc2ccc(NC(=O)C(C)(C)C)cc2)nc(N)n1` [Example 59, N-[4-(2-{[2-amino-6-(3-chloro-2-methylphenyl)pyrimidin-4-yl]amino}ethyl)phenyl]-2,2-dimethylpropanamide] were, in that order, below 200 nM and below 500 nM.
The like results for `Cc1c(Cl)cccc1-c1cc(NCCc2ccc(NS(=O)(=O)CC(F)(F)F)cc2)nc(N)n1` [Example 60, N-[4-(2-{[2-amino-6-(3-chloro-2-methylphenyl)pyrimidin-4-yl]amino}ethyl)phenyl]-2,2,2-trifluoroethane-1-sulfonamide] were, in that order, below 200 nM and below 500 nM.
For `Cc1c(Cl)cccc1-c1cc(NCCc2ccc(NC(=O)NC(C)C)cc2)nc(N)n1` [Example 61, 1-[4-(2-{[2-amino-6-(3-chloro-2-methylphenyl)pyrimidin-4-yl]amino}ethyl)phenyl]-3-(propan-2-yl)urea], in that order: below 200 nM and below 500 nM.
For `Cc1c(Cl)cccc1-c1cc(NCCc2ccc(NC(=O)OC(C)(C)C)cc2)nc(N)n1` [Example 62, tert-butyl N-[4-(2-{[2-amino-6-(3-chloro-2-methylphenyl)pyrimidin-4-yl]amino}ethyl)phenyl]carbamate], the IC50 was below 200 nM against MTH1 and below 500 nM with cancer cell.
For `CCS(=O)(=O)Nc1ccc(CCNc2cc(-c3cccc(Cl)c3C)nc(N)n2)cc1` [Example 64, N-[4-(2-{[2-amino-6-(3-chloro-2-methylphenyl)pyrimidin-4-yl]amino}ethyl)phenyl]ethane-1-sulfonamide], in that order: below 200 nM and below 500 nM.
For `Cc1cc(C)c(-c2cc(NCCc3ccc(S(N)(=O)=O)cc3)nc(N)n2)cc1C` [Example 65, 4-(2-{[2-amino-6-(2,4,5-trimethylphenyl)pyrimidin-4-yl]amino}ethyl)benzene-1-sulfonamide], in that order: below 200 nM and below 500 nM.
For `COc1cc(C)c(-c2cc(NCCc3ccc(S(N)(=O)=O)cc3)nc(N)n2)cc1C` [Example 66, 4-(2-{[2-amino-6-(4-methoxy-2,5-dimethylphenyl)pyrimidin-4-yl]amino}ethyl)benzene-1-sulfonamide], in that order: below 200 nM and below 500 nM.
Consider `Cc1ccc(C)c(-c2cc(NCCc3ccc(S(N)(=O)=O)cc3)nc(N)n2)c1` [Example 70, 4-(2-{[2-amino-6-(2,5-dimethylphenyl)pyrimidin-4-yl]amino}ethyl)benzene-1-sulfonamide], for which the IC50 was below 200 nM against MTH1 and below 500 nM in the assay with cancer cell.
For `Cc1c(-c2cc(NCCc3ccc(S(N)(=O)=O)cc3)nc(N)n2)cc(Cl)c(Cl)c1Cl` [Example 72, 4-(2-{[2-amino-6-(3,4,5-trichloro-2-methylphenyl)pyrimidin-4-yl]amino}ethyl)benzene-1-sulfonamide], in that order: below 200 nM and below 500 nM.
For `Cc1cc(Cl)cc(-c2cc(NCCc3ccc(S(N)(=O)=O)cc3)nc(N)n2)c1F` [Example 73, 4-(2-{[2-amino-6-(5-chloro-2-fluoro-3-methylphenyl)pyrimidin-4-yl]amino}ethyl)benzene-1-sulfonamide], the IC50 was below 200 nM at MTH1 and below 500 nM with cancer cell.
Consider `Cc1c(Cl)cc(Cl)cc1-c1cc(NCCc2ccc(S(N)(=O)=O)cc2)nc(N)n1` [Example 74, 4-(2-{[2-amino-6-(3,5-dichloro-2-methylphenyl)pyrimidin-4-yl]amino}ethyl)benzene-1-sulfonamide], for which the values for the IC50 on MTH1 and in the assay with cancer cell were below 200 nM and below 500 nM, respectively.
Regarding `Cc1c(-c2cc(NCCc3ccc(C(N)=O)cc3)nc(N)n2)cc(Cl)c(Cl)c1Cl` [Example 75, 4-(2-{[2-amino-6-(3,4,5-trichloro-2-methylphenyl)pyrimidin-4-yl]amino}ethyl)benzamide], the IC50 was below 200 nM on MTH1 and below 500 nM in the assay on cancer cell.
The like results for `Cc1c(Cl)cc(Cl)cc1-c1cc(NCCc2ccc(C(N)=O)cc2)nc(N)n1` [Example 76, 4-(2-{[2-amino-6-(3,5-dichloro-2-methylphenyl)pyrimidin-4-yl]amino}ethyl)benzamide] were, in that order, below 200 nM and below 500 nM.
Consider `Cc1c(F)ccc(-c2cc(NCCc3ccc(C(N)=O)cc3)nc(N)n2)c1C` [Example 77, 4-(2-{[2-amino-6-(4-fluoro-2,3-dimethylphenyl)pyrimidin-4-yl]amino}ethyl)benzamide], for which the IC50 on MTH1 is below 200 nM; in the assay with cancer cell, below 500 nM.
The like results for `Cc1c(-c2cc(NCCc3ccc(C(N)=O)cc3)nc(N)n2)ccc(Cl)c1Cl` [Example 78, 4-(2-{[2-amino-6-(3,4-dichloro-2-methylphenyl)pyrimidin-4-yl]amino}ethyl)benzamide] were, in that order, below 200 nM and below 500 nM.
The like results for `Cc1cc(Cl)cc(-c2cc(NCCc3ccc(C(N)=O)cc3)nc(N)n2)c1F` [Example 79, 4-(2-{[2-amino-6-(5-chloro-2-fluoro-3-methylphenyl)pyrimidin-4-yl]amino}ethyl)benzamide] were, in that order, below 200 nM and below 500 nM.
The like results for `Cc1c(Cl)cccc1-c1cc(NCCc2cccc(NC(=O)C(C)(C)C)c2)nc(N)n1` [Example 81, N-[3-(2-{[2-amino-6-(3-chloro-2-methylphenyl)pyrimidin-4-yl]amino}ethyl)phenyl]-2,2-dimethylpropanamide] were, in that order, below 200 nM and below 500 nM.
